Values after ≈ are worked out from the molar mass of the structure shown.
How the values were obtained:
[1] = test system: male Sprague-Dawley (SD) rats; test: Carrageenan-induced foot edema in rats (CFE); assay type: in vivo; conditions: rat, paw volume 3 hours after Carrageenan
Procedure: An appropriate amount of a compound of this invention suspended in 1% methylcellulose (MC) solution was administered to male Sprague-Dawley (SD) rats weighing 150˜200 g by oral gavage. The volume of the administered vehicle for a compound of this invention was controlled to be smaller than 10 ml/kg body weight of the animal. One hour later, 0.1 ml of 1% Carrageenan saline solution was directly injected into the right paw of the rats to induce edema in the paw. The paw volumes at 0 hour and at 3 hours after the injection of Carrageenan were measured by using a displacement plethysmometer (Ugo Basile, Italy). The paw volumes were used to calculate % inhibition of CFE by an amount of a compound of this invention according to the following equation.
% Inhibition of CFE=(1−Δtreated/Δcontrol)×100
wherein Δtreated=[paw volume at three hours after the Carrageenan injection−paw volume right after Carrageenan injection] for a drug-administered rat, and Δcontrol=[paw volume at three hours after the Carrageenan injection−paw volume right after Carrageenan injection] for a rat without drug administration.
In order to determine the inhibitory activity of a compound of this invention at a dose, usually 5 to 8 animals were used both for drug-treated group and for control group.

COX-1 = molecular target: T1, COX-1 (Mus musculus, UniProt P22437); test: Evaluation of COX-1 activity: PGE2 formation in mouse peritoneal macrophages without aspirin and LPS treatment; assay type: cell-based
T1 sequence (P22437 27-602): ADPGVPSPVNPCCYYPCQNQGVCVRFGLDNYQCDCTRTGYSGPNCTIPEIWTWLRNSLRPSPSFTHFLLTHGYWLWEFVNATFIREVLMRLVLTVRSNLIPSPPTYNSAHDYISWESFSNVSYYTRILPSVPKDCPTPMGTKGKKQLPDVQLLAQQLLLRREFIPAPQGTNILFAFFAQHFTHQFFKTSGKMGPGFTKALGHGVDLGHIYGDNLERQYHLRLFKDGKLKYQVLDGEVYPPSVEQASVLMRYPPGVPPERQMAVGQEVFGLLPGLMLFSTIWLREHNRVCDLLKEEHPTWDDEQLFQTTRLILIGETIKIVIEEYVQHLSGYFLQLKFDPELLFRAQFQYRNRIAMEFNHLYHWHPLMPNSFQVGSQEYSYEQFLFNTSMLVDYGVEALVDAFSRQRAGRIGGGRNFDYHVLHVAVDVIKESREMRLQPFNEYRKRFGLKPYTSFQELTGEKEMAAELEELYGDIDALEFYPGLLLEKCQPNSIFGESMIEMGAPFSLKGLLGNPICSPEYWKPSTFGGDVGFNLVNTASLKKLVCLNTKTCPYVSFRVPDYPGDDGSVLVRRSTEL
In short: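 Peritoneal macrophages from C57BL/6 mice, without aspirin or LPS treatment, were plated at 1×10^6 cells/ml and fixed 2 h at 37 °C. Cells were preincubated 10 min, then given 10 μM arachidonic acid plus compound for 10 min; PGE2 was measured by RIA or EIA. IC50 came from 4–5 concentrations.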

COX-2 = molecular target: T2, COX-2 (Mus musculus, UniProt Q05769); test: Evaluation of COX-2 activity: PGE2 formation in aspirin-treated, LPS-stimulated mouse peritoneal macrophages; assay type: cell-based
T2 sequence (Q05769 18-604): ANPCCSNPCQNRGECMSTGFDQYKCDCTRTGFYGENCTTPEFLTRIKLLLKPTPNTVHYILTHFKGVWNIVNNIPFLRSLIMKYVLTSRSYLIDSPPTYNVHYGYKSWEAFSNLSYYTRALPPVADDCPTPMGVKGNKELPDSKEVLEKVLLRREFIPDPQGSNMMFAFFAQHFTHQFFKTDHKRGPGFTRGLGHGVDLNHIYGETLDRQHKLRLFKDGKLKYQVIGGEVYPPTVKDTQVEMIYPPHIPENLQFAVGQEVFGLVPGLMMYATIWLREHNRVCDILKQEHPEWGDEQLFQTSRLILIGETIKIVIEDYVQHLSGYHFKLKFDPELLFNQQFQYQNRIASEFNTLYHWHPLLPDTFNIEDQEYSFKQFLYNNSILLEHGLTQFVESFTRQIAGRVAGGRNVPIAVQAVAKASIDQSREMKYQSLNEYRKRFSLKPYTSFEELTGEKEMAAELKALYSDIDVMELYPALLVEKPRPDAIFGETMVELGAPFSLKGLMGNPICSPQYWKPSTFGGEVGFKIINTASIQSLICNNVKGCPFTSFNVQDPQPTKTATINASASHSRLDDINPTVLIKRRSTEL
In short: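 PGE2 output, quantified by radio- or enzyme-immunoassay, was read after 10 min exposure of cells to compound with 10 μM arachidonic acid. Cells were mouse peritoneal macrophages, COX-1 knocked out with 500 μM aspirin and COX-2 induced by 10 μg/ml LPS over 16 h. IC50 derived from 4–5 concentrations.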

male SD rats [2] = test: Antiinflammatory potency by adjuvant arthritis (AA); assay type: in vivo; conditions: daily oral dose day 14 to day 22, rat
Procedure: Arthritis was induced in male SD rats weighing 180-200 g by subcutaneous injection of Mycobacterium butyricum mixed in 0.1 ml of incomplete Freund's adjuvanat into the base of the tail. The foot volumes were measured using a displacement plethysomometer 14 days after the injection of the adjuvant. Animals with paw volumes greater than the normal paw volumes (without the adjuvant treatment) by 0.37 ml were selected, and then randomized. A designated daily dose of a compound of this invention, which was suspended in 1% aqueous methylcellulose solution, was administered to the randomized rats with arthritis by oral gavage daily once beginning on day 14 after the injection of the adjuvant. The administration of the compound continued till day 22 after the injection of the adjuvant, and the paw volumes were measured on daily basis using a displacement plethysmometer.
% Inhibition of AA=(1−Δtreated/Δcontrol)×100
wherein Δtreated=[(paw volume at day 22)/(paw volume at day 14)−1] for a drug-administered rat, and Δcontrol=[(paw volume at day 22)/(paw volume at day 14)−1] for a rat without drug administration.
ED50 value was determined b a dose-response curve for each compound.

male SD rats [3] = test: Carrageenan-induced thermal hyperalgesia assay; assay type: in vivo, rat; conditions: 3 hours
Procedure: Male SD rats weighing 170˜220 g were fasted but with free access to water for at leat 16 hours prior to testing. The rats were administered with a compound of this invention suspended in 20 ml 0.5% methylcellulose/0.025% Tween-20, or with vehicle only. Then the rats were given […] of 1% carrageenan in saline or […] saline only into the plantar surface of the left hindpaw by injection. Three hours later, the nociceptive responses to thermal stimuli were assessed as follows: Rats, which were placed in a transparent plastic chamber with a glass floor, were allowed to acclimate to their environment for 10 minutes prior to the testing. The withdrawal latency period in seconds was determined for the control and the compound treated group, and a percent inhibition in the withdrawal latency was calculated to estimate the analgesic effect of the compound [Pain 32, 77 (1988)]. In this study 6 animals were used for each group.

ICR mice = test: Acetic acid-induced writhing test; assay type: in vivo, mouse; conditions: oral gavage
Procedure: ICR mice weighing 18˜22 g were maintained in a controlled lighting environment (12 hours on/12 hours off) and fasted overnight prior analgesic testing. Mice were administered with a compound of this invention dissolved in 10:10:80 ethanol/Tween 80/saline or vehicle only by oral gavage. The administered vehicle volume was controlled to be 10 ml/kg body weight. One hour later, the animals were treated with 0.2 ml of 1.2% acetic acid by peritoneal injection. 6 minutes later, the number of abdominal constrictions was counted for a 6 minutes period. The antinociceptive activity was expressed as the reduction in the number of abdominal constrictions, compared with that of the placebo group [J. Med. Chem. 39, 4942 (1996)]. ED50 of the mouse writhing test denotes a dose level at which the number of abdominal constrictions is half that of the placebo group. Ten animals per group were used for this study.

Compound	% Inhibition (CFE) ([1]; oral dose 3 mg/kg body weight)	IC50, μg/ml COX-1 (COX-1)	melting point	IC50, μg/ml COX-2 (COX-2)	Adjuvant Arthritis ED50 (male SD rats [2])	% Inhibition at 1.0 mg/kg body weight (rat hyperalgesia) (male SD rats [3])	% Inhibition (CFE) ([1]; oral dose 1 mg/kg body weight)	ED50 (mouse writhing) (ICR mice)	IC50 (COX-1; read-out: IC50, μg/ml COX-1 (converted))	IC50 (COX-2; read-out: IC50, μg/ml COX-2 (converted))
CC1(C)OC(c2ccc(S(N)(=O)=O)c(F)c2)=C(c2cccc(F)c2)C1=O [Example 302]	27%	5 µg/mL (≈ 13.2 µM)	178 to 179 °C	0.03 µg/mL (≈ 0.0791 µM)						
CC1(C)OC(c2ccc(S(C)(=O)=O)c(F)c2)=C(c2ccc(F)c(F)c2)C1=O [Example 284]	33%	10 µg/mL (≈ 25.2 µM)	158 to 159 °C	0.03 µg/mL (≈ 0.0757 µM)						
CC1(C)OC(c2ccc(S(N)(=O)=O)c(F)c2)=C(c2ccc(F)cc2)C1=O [Example 303]	30%	3 µg/mL (≈ 7.91 µM)	190 to 192 °C	0.03 µg/mL (≈ 0.0791 µM)						
CC1(C)OC(c2ccc(S(C)(=O)=O)c(Cl)c2)=C(c2ccc(F)c(F)c2)C1=O [Example 361]	41%	4 µg/mL (≈ 9.69 µM)	150 to 151 °C	0.009 µg/mL (≈ 0.0218 µM)						
CC1(C)OC(c2ccc(S(C)(=O)=O)cc2)=C(c2cccc(C(F)(F)F)c2)C1=O [Example 14]	32%		115 to 116 °C		0.06 mg/kg body weight					
CC1(C)OC(c2ccc(S(N)(=O)=O)cc2F)=C(c2cccc(F)c2)C1=O [Example 333]	25%	10 µg/mL (≈ 26.4 µM)	168 to 170 °C	0.003 µg/mL (≈ 0.00791 µM)						
CC1(C)OC(c2ccc(S(N)(=O)=O)cc2)=C(c2cc(F)ccc2F)C1=O [Example 157]	41%	5.15 µg/mL (≈ 13.6 µM)	182 to 183 °C	0.038 µg/mL (≈ 0.1 µM)						
Cc1cccc(C2=C(c3ccc(S(C)(=O)=O)cc3)OC3(CCCC3)C2=O)c1 [Example 255]	31%	3 µg/mL (≈ 7.84 µM)	142 to 143 °C	0.03 µg/mL (≈ 0.0784 µM)						
CC1(C)OC(c2ccc(S(C)(=O)=O)c(Br)c2)=C(c2cccc(F)c2)C1=O [Example 343]	25%	50 µg/mL (≈ 114 µM)	133 to 134 °C	0.03 µg/mL (≈ 0.0683 µM)						
COc1ccc2c(c1)c(CC(=O)O)c(C)n2C(=O)c1ccc(Cl)cc1 [indomethacin, reference compound]						45%	28%	7.4 mg/kg body weight		
CCC1(C)OC(c2ccc(S(C)(=O)=O)cc2)=C(c2cccc(Cl)c2)C1=O (centres unmarked) [Example 195]	28%		94 to 95 °C						12.8 µM	0.0767 µM
CC1(C)OC(c2ccc(S(C)(=O)=O)c(F)c2)=C(c2cccc(Cl)c2)C1=O [Example 278]	27%	30 µg/mL (≈ 76 µM)	108 to 109 °C	0.05 µg/mL (≈ 0.127 µM)						
CCSc1ccc(C2=C(c3ccc(S(N)(=O)=O)cc3)OC(C)(C)C2=O)cc1 [Example 146]	24%	0.83 µg/mL (≈ 2.06 µM)	185 °C	0.0014 µg/mL (≈ 0.00347 µM)						
